Here are results for three compounds from ChEMBL document CHEMBL5505958, “Optimization of sequence and chiral content enhances therapeutic potential of tilapia piscidin peptides” (Eur J Med Chem, 2024).

Values after ≈ are worked out from the molar mass of the structure shown. Active and inactive are the calls of the source.

The subject of series [1] is Klebsiella pneumoniae. The experiment in a line: Antimicrobial activity against drug-resistant Klebsiella pneumoniae BAA 2473 infected in C57BL/6 mouse assessed as reduction in bacterial load at 5 mg/kg, po administered for 2 hrs and measured at 24 hrs. It counts as functional, organism-based. The note with it: time 26.0 hrs.
The nature of series [2]: Toxicity in C57BL/6 mouse assessed as effect on BUN level upto 10 mg/kg, iv measured for 7 days. Format: organism-based. Conditions: in vivo, 168 h, time 7 day.
The subject of series [3] is Klebsiella pneumoniae. In words: Antibacterial activity against Klebsiella pneumoniae TL 297 assessed as inhibition of bacterial growth incubated for 16 to 20 hrs. Format: functional. The note with it: time 16-20 hrs.
In series [4] the test system is Klebsiella oxytoca. The experiment in a line: Antibacterial activity against Klebsiella oxytoca 13985 assessed as inhibition of bacterial growth incubated for 16 to 20 hrs. Format: functional. Conditions: time 16-20 hrs.
The next series relates to Cell membrane. The experiment in a line: Induction of outer cell membrane permeabilization in Klebsiella pneumoniae BAA 2473 assessed as increase in fluorescence intensity by PI staining based analysis. Format: cell membranes.
In series [5] the test system is Klebsiella oxytoca. The experiment in a line: Bactericidal activity against Klebsiella oxytoca 13985 assessed as inhibition of bacterial growth incubated for 16 to 20 hrs. Conditions: time 16-20 hrs. It counts as functional.
In series [6] the test system is Klebsiella pneumoniae. The experiment in a line: Synergistic antibacterial activity against Klebsiella pneumoniae BAA 2473 assessed as fractional inhibitory concentration index in presence of ciprofloxacin by checkerboard assay. Format: functional.
In series [7] the test system is Klebsiella pneumoniae. The experiment in a line: Antibacterial activity against Klebsiella pneumoniae BAA 2473 assessed as inhibition of bacterial growth in presence of meropenem. Format: functional.
The nature of series [8]: Toxicity in C57BL/6 mouse assessed as survival rate at 12.5 to 15 mg/kg, iv measured for 7 days. Format: organism-based. The note with it: in vivo, dose 12.5-15 mg/kg, time 7 day.
Series [9] has as its system Erythrocyte. The experiment in a line: Hemolytic activity in human Red blood cells assessed as hemolysis at 200 uM incubated for 1 hrs. It counts as toxicity, cell-based.
A short description of series [10]: Toxicity in C57BL/6 mouse assessed as mortality at 5 to 10 mg/kg, iv measured for 7 days. Format: organism-based. The note with it: in vivo, 168 h, dose 5-10 mg/kg, time 7 day.
A short description of series [11]: Toxicity in C57BL/6 mouse assessed as change in body weight at 15 mg/kg, iv measured for 7 days. The note with it: in vivo, 168 h, time 7 day. Format: organism-based.
A further series concerns Pseudomonas aeruginosa. The experiment in a line: Bactericidal activity against Pseudomonas aeruginosa 19660 assessed as inhibition of bacterial growth incubated for 16 to 20 hrs. Conditions: time 16-20 hrs. It counts as functional.
Series [12] concerns Klebsiella pneumoniae. In words: Antibacterial activity against Klebsiella pneumoniae BAA 2473 assessed as doxycycline MIC. Format: functional.
The nature of series [13]: Toxicity in C57BL/6 mouse assessed as mortality at 20 mg/kg, iv measured for 2 days. It counts as organism-based. The note with it: in vivo, time 2 day.
The nature of series [14]: Toxicity in C57BL/6 mouse assessed as increase in creatinine level upto 12.5 mg/kg, iv measured for 7 days. It counts as organism-based. Conditions: in vivo, 168 h, time 7 day.
For a further series, the system named is Lipopolysaccharide (LPS). The experiment in a line: Displacement of BODIPY-TR-cadaverine from Klebsiella pneumoniae BAA 2473 lipopolysaccharide (LPS) assessed as increase in fluorescence intensity at 1.56 uM by fluorescence spectrophotometric analysis. Format: subcellular.
In series [15] the test system is Klebsiella pneumoniae. The experiment in a line: Bactericidal activity against Klebsiella pneumoniae TL 297 assessed as inhibition of bacterial growth incubated for 16 to 20 hrs. Conditions: time 16-20 hrs. Format: functional.
For series [16], the system named is Klebsiella pneumoniae. The experiment in a line: Additive antibacterial activity against Klebsiella pneumoniae BAA 2473 assessed as fractional inhibitory concentration index in presence of meropenem by checkerboard assay. It counts as functional.
The subject of series [17] is Klebsiella pneumoniae. The experiment in a line: Antibacterial activity against Klebsiella pneumoniae BAA 2473 assessed as meropenem MIC. Format: functional.
Series [18] is described as follows: Toxicity in C57BL/6 mouse assessed as effect on GOT level in liver upto 7.5 mg/kg, iv measured for 7 days. Format: organism-based. Conditions: in vivo, 168 h, time 7 day.
The subject of series [19] is Klebsiella pneumoniae. The experiment in a line: Antibacterial activity against Klebsiella pneumoniae BAA 2473 assessed as ciprofloxacin MIC. Format: functional.
In series [20] the test system is Staphylococcus aureus. The experiment in a line: Bactericidal activity against Staphylococcus aureus 10780 assessed as inhibition of bacterial growth incubated for 16 to 20 hrs. The note with it: time 16-20 hrs. It counts as functional.
Series [21] concerns Staphylococcus aureus. In words: Antibacterial activity against Staphylococcus aureus 10780 assessed as inhibition of bacterial growth incubated for 16 to 20 hrs. The note with it: time 16-20 hrs. Format: functional.
The subject of series [22] is Klebsiella pneumoniae. The experiment in a line: Antibacterial activity against Klebsiella pneumoniae BAA 2473 assessed as bacterial eradication measured at 2 hrs. Format: functional.
For series [23], the system named is Erythrocyte. In words: Hemolytic activity in human Red blood cells assessed as hemolysis at 3.13 uM incubated for 1 hrs. It counts as toxicity, cell-based.
Series [24] deals with Klebsiella pneumoniae. In words: Antimicrobial activity against drug-resistant Klebsiella pneumoniae BAA 2473 infected in C57BL/6 mouse assessed as fold reduction in bacterial load at 5 mg/kg, po administered for 2 hrs and measured at 24 hrs. Format: functional.
A short description of series [25]: Toxicity in C57BL/6 mouse assessed as change in GPT level in liver at 15 mg/kg, iv measured for 7 days. It counts as organism-based. Conditions: in vivo, 168 h, time 7 day.

As a reminder, the MIC is the smallest concentration in the dilution series that meets the test's criterion for growth inhibition. The term MBC denotes the lowest tested concentration that kills the bacteria rather than only halting them. The mortality is the share of the test organisms that died. For `CC(C)C[C@H](NC(=O)[C@H](CCCCN)NC(=O)[C@@H](CCCCN)NC(=O)[C@H](CC(C)C)NC(=O)[C@@H](N)Cc1ccccc1)C(=O)N[C@H](CC(C)C)C(=O)N[C@@H](CCCCN)C(=O)N[C@@H](C)C(=O)N[C@H](CC(C)C)C(=O)N[C@@H](Cc1ccccc1)C(=O)N[C@@H](CO)C(=O)N[C@H](C)C(=O)N1CCC[C@H]1C(=O)N[C@@H](CCCCN)C(=O)N[C@H](C)C(=O)N[C@@H](CC(C)C)C(=O)N[C@@H](CCCCN)C(=O)N[C@H](CCCNC(=N)N)C(=O)N[C@@H](CC(C)C)C(=O)N[C@@H](CC(C)C)C(=O)N[C@H](CCCNC(=N)N)C(=O)N[C@@H](CCCNC(=N)N)C(=O)N[C@@H](CCCNC(=N)N)C(=O)N[C@H](CCCNC(=N)N)C(=O)N[C@@H](CCCNC(=N)N)C(=O)O`, in the series with Klebsiella pneumoniae [1], the outcome was inactive. For the same compound, the Activity result (in series [2]; with Erythrocyte [9]; in [10]; in [11]; in [14]; in series [18]) was “Non-Toxic” in each case. The MIC came out at 12.5 µM (≈ 38.5 µg/mL) with Klebsiella pneumoniae [3]; 1.56 µM (≈ 4.8 µg/mL) in the series on Klebsiella oxytoca [4]; 0.78 µM with Klebsiella pneumoniae [7]; 6.25 µM in the series on Klebsiella pneumoniae [12]; 3.12 µM with Klebsiella pneumoniae [17]; 0.195 µM in the series on Klebsiella pneumoniae [19]. In addition, the result with Cell membrane and with Lipopolysaccharide (LPS) was Active. Moreover, the MBC worked out at 1.56 µM (≈ 4.8 µg/mL) with Klebsiella oxytoca [5], 3.13 µM (≈ 9.64 µg/mL) with Pseudomonas aeruginosa and 6.25 µM (≈ 19.2 µg/mL) in the series on Klebsiella pneumoniae [15]. Besides, the “fractional inhibitory concentration index (FICI)” value in the series with Klebsiella pneumoniae [6] turned out to be 1.003; with Klebsiella pneumoniae [16], 1. Also, the survival at 168 h in [8] was 80%. Further, the mortality at 48 h in series [13] is 100%.

With H-FIHHIIGGLFSAGKAIHRLIRRRRR-OH, the MBC with Staphylococcus aureus [20] amounted to 0.78 µM. In the series with Staphylococcus aureus [21], the MIC worked out at 0.78 µM. Further, the results for the Activity in the series with Klebsiella pneumoniae [22] and in the series on Erythrocyte [23] were 100% and “Non-Toxic”, respectively.

For `CC(C)C[C@H](NC(=O)[C@@H](C)NC(=O)[C@@H](CCCCN)NC(=O)[C@H](CC(C)C)NC(=O)[C@@H](CC(C)C)NC(=O)[C@@H](CCCCN)NC(=O)[C@H](CCCCN)NC(=O)[C@@H](CC(C)C)NC(=O)[C@H](N)Cc1ccccc1)C(=O)N[C@H](Cc1ccccc1)C(=O)N[C@H](CO)C(=O)N[C@@H](C)C(=O)N1CCC[C@@H]1C(=O)N[C@H](CCCCN)C(=O)N[C@@H](C)C(=O)N[C@H](CC(C)C)C(=O)N[C@H](CCCCN)C(=O)N[C@@H](CCCNC(=N)N)C(=O)N[C@H](CC(C)C)C(=O)N[C@H](CC(C)C)C(=O)N[C@@H](CCCNC(=N)N)C(=O)N[C@H](CCCNC(=N)N)C(=O)N[C@H](CCCNC(=N)N)C(=O)N[C@@H](CCCNC(=N)N)C(=O)N[C@@H](CCCNC(=N)N)C(=O)O`, the outcome in the series on Klebsiella pneumoniae [1], with Cell membrane and in the series on Lipopolysaccharide (LPS) was Active. Besides, the “fold change (FC)” value with Klebsiella pneumoniae [24] was ~10. The Activity result (in series [25]; with Erythrocyte [9]) was “Non-Toxic” in each case. In addition, the MBC with Staphylococcus aureus [20] is 6.25 µM (≈ 19.2 µg/mL); in the series on Klebsiella oxytoca [5], 3.13 µM (≈ 9.64 µg/mL); in the series with Pseudomonas aeruginosa, 3.13 µM (≈ 9.64 µg/mL); in the series with Klebsiella pneumoniae [15], 6.25 µM (≈ 19.2 µg/mL). Besides, the minimum inhibitory concentration (MIC) in the series on Klebsiella pneumoniae [3] is 6.25 µM (≈ 19.2 µg/mL); with Staphylococcus aureus [21] it was 12.5 µM (≈ 38.5 µg/mL); in the series on Klebsiella oxytoca [4] it was 3.13 µM (≈ 9.64 µg/mL); with Klebsiella pneumoniae [7], 0.78 µM; in the series with Klebsiella pneumoniae [12], 1.56 µM; with Klebsiella pneumoniae [17] it was 400 µM. The MIC in the series on Klebsiella pneumoniae [19] is 50 µM. Moreover, the figures for the “fractional inhibitory concentration index (FICI)” value with Klebsiella pneumoniae [6] and in the series on Klebsiella pneumoniae [16] were 0.562 and 1.003, respectively.
